What was measured:
Format in all cases: in vivo, Cimex lectularius
bed bugs [1] = test: large Plexiglass arena bioassay with baited shelters; settings: adult males
Excerpt: The large two-chamber Plexiglass arena (180 cm long×12 cm high×13 cm wide) was designed with a central divider (180 cm long×5.5 cm high) to accommodate two pieces of wood (162 cm long×3.8 cm wide×0.8 cm high), each piece for testing the response of a single bed bug to a pheromone-baited shelter or a control shelter (see insert in FIG. 19) which were randomly assigned to either end of the wood. […] For each replicate, a single bed bug was placed in the center of the wood piece just prior to the end of the 14-h photophase, and its position was scored the next morning after the onset of the photophase.
Experiments 68-75 also investigated the effect of the volatile pheromone components (VPCs) (E)-2-hexenal, (E)-2-octenal, dimethyl disulfide, dimethyl trisulfide and 2-hexanone, and the effect of the less-volatile pheromone component histamine (H), on attraction and arrestment of bed bugs. Treatment stimuli consisted of filter paper (4×2.2 cm) impregnated with H (2,000 μg) and covered with a piece of corrugated cardboard shelter (3×2.2 cm), and of VPCs formulated at a high dose (500 μg; Experiments 68-74) or a medium dose (50 μg; Exp. 75) in mineral oil (0.5 mL) and pipetted into the inverted lid of a 20-ml scintillation vial resting on top of the shelter (FIG. 19). Control stimuli were of identical design but the filter paper contained no H, and the mineral oil contained no VPCs.

[2] = system: bed bugs (C. lectularius); test: three-dish, dual-choice olfactometer bioassay; settings: Exp. 23-37; nymphs; amounts in micrograms in parentheses of the bait
Excerpt: Bioassays were run in dual-choice olfactometers and in large Plexiglass arenas (FIG. 19). Dual-choice olfactometers consisted of two lateral Pyrex® glass Petri dishes, connected to a central dish (all dishes 3×9 cm inner diameter) via a Pyrex® glass tube (2.5 cm long×2 cm inner diameter). The dishes in this olfactometer mimic the natural still-air shelters in which bed bugs spend the day. Prior to the start of bioassays, a disc of paper toweling (9 cm diameter) was placed into each dish and a strip of paper toweling (2.4×0.6 cm) was inserted into the connecting glass tubing to provide traction for walking bed bugs. In addition, a piece of filter paper (2×3 cm; Whatman) was placed into each lateral dish and covered with a piece of cardboard (2×2 cm) as a refuge for bioassay insects.
Treatment and control stimuli were randomly assigned to each lateral dish. Olfactometers were enclosed in opaque plastic bins to prevent light from entering and affecting the insects' responses. For each replicate, a single 3rd, 4th, or 5th instar C. lectularius nymph was released into the central chamber of the olfactometer, which was then covered with a glass plate to prevent escape. The single bed bug in each olfactometer was then allowed to explore all chambers. Each insect was released into an olfactometer at the end of the 14-h photophase allowing it to explore the chambers during 10 h of darkness, and to come to rest in one of the shelters during 10 h of light. After this 20-h period, the insect's position within the olfactometer was recorded. Any insects not found in a lateral chamber were recorded as non-responders. All experimental replicates were run at 24±2° C. and 30-60% RH. Olfactometers were washed with Sparkleen detergent (Fisher Scientific Co, Pittsburgh, PA, USA), and were oven-dried (Precision, Winchester, VA, USA) between each bioassay.

bed bugs [3] = test: pheromone-baited shelter traps in a heavily infested residential apartment (Room 106); settings: Exp. 76-79, 24-h periods; for Mean ± SE number insects in baited shelter: VPCs total 500 μg, histamine 2,000 μg, nymphal and adult bed bugs; for Mean (±SE) number insects in control shelter: unbaited control shelter paired with the baited shelter
Excerpt: To determine whether bed bugs responded to synthetic pheromone lures not only in large arena laboratory bioassays but also in infested premises (residential apartments), we placed pheromone-baited shelter traps (see FIG. 19) in apartments with known or suspected bed bug infestations. […] Based on 24-hour trapping results in multiple apartments, we selected a single, heavily infested apartment (hereafter referred to as Room 106) for further testing of synthetic bed bug pheromone lures.
Replicates (n=15-20) of each experiment consisted of paired shelters placed against a wall or furniture, with approximately 30-cm spacing between paired shelters and >1 m spacing between shelter pairs. For each shelter pair within each experiment, pheromone and control treatments were randomly assigned, and placement of replicates was alternated between the two experiments of Set 1 and Set 2. Because not more than 10 shelter pairs could be accommodated in Room 106 at any time, experimental data were collected over several consecutive 24-h periods. Every morning at 9:00, shelters were collected from Room 106 and immediately placed into separate labelled zipper lock bags which were then put on dry ice to kill the bed bugs that had entered a shelter. Bed bugs in each shelter were later counted in the laboratory under a microscope, noting their developmental stage (1st, 2nd, 3rd, or 4th instar, adult), sex (male, female), and evidence (or not) for blood feeding prior to entry into a shelter. Immediately following the removal of bed bug shelters from Room 106 each morning, new pre-prepared shelters were pheromone-baited (treatment) or not (control) and their position within shelter pairs randomly assigned (see above), again alternating placement of shelter pairs between Experiments 76 and 77 (Set 1) and between Experiments 78 and 79 (Set 2).

SMILES: NCCc1c[nH]cn1 [H, histamine]
- No. insects in shelter 1 (bed bugs [1]; Exp. 68-71, 73, baited shelter 1 vs unbaited shelter 2, VPCs 500 μg, histamine 2,000 μg): 12
- No. insects not responding (bed bugs [1]; Exp. 68-71, 73, baited shelter 1 vs unbaited shelter 2): 5
- No. insects in shelter 2 (bed bugs [1]; Exp. 68-71, 73, unbaited shelter 2 paired with the baited shelter 1): 1
- No. insects in shelter 2 (bed bugs [1]; Exp. 68-71, 73, unbaited shelter 2 paired with the baited shelter 1, listed as histamine): one
- No. insects in shelter 2 (bed bugs [1]; Exp. 72, shelter 2 H (2,000 μg) vs shelter 1 VPC (500 μg)): 14
- No. insects in shelter 2 (bed bugs [1]; Exp. 74, shelter 2 H (2,000 μg) vs shelter 1 VPC (500 μg) + H): 5
- No. insects in shelter 2 (bed bugs [1]; Exp. 75, shelter 2 H (2,000 μg) vs shelter 1 VPC (50 μg) + H): 0
- No. insects in bait chamber [2]: 35
- No. insects in control chamber [2]: 10
- No. insects not responding [2]: 3
- Mean ± SE number insects in baited shelter (bed bugs [3]): 6.06 ± 1.28
- Mean ± SE number insects in baited shelter (bed bugs [3]; listed as histamine): 6.06
- Mean (±SE) number insects in control shelter (bed bugs [3]): 4.53 ± 1.8
- Mean (±SE) number insects in control shelter (bed bugs [3]; listed as histamine): 4.53
